row,Structure (SMILES),melting point [°C]
1,O=c1c2c(O)c(O)ccc2c2cc(O)c(O)cc2n1Cc1ccccc1,224 to 225
2,O=C1N[C@H](Cc2ccc(C(F)(F)F)cc2)[C@H](c2ccccc2)O1 (racemic),158 to 159
3,O=C(NC(=O)c1c(F)cccc1F)Nc1ccc(S(=O)(=O)C(F)(F)C(F)F)cc1F,186 to 187
4,"CCCCOc1ccc(C#CC2(O)CN3CCC2CC3)cc1 (single isomer, unassigned; (+))",115 to 116
5,FC(F)(F)COc1ccnc(Oc2ccc(CCNc3ncnc4nccnc34)cc2)c1,166
6,CCOC(=O)/C(F)=C/c1ccc(Br)cc1,59 to 61
7,CC1(C)CCC(N2c3ccccc3Oc3ccccc32)=N1,148 to 150
8,Cc1cc(=O)c(-c2ccc(Cl)cc2)c(C)n1C,221 to 222
9,O=C(Nc1cccc(Br)c1)Nc1cc(NC(=O)Nc2cccc(Br)c2)cc(C(=O)O)c1,> 300
10,Cn1cc2c(n1)-c1cnn(C)c1CC2,140 to 145
11,CNC1Oc2cc(Cl)cc(-c3ccccc3F)c2O1 (stereo not drawn),> 250
12,O=[N+]([O-])c1ccc(OCCn2ccnc2)cc1,55 to 57
13,COC(=O)C1=CN(CCCc2ccccc2)C=C(C(=O)OC)C1c1ccc(OC)c(OC)c1,107 to 113
14,COc1cc(C=O)c([N+](=O)[O-])c(OC)c1,104 to 105
15,COc1c(OCc2ccccc2)c(OC)c2c(=O)cc(-c3ccc(OCc4ccccc4)cc3)oc2c1OC,172 to 173
16,CC(C)S(=O)(=O)NC(=O)c1cccc([N+](=O)[O-])c1,175 to 177
17,N#Cc1cc(C=Cc2ccc(N(c3ccccc3)c3ccccc3)cc2)c(C#N)cc1C=Cc1ccc(N(c2ccccc2)c2ccccc2)cc1,260
18,CN1OC(COc2ccccc2)CC1(Cn1ccnc1)c1ccc2ccccc2c1 (stereo not drawn),176 to 178
19,COCCCCCC(=O)c1ccc(S(C)=O)cc1 (stereo not drawn),74 to 77
20,CCc1cc(C(=O)c2ccccc2Cl)c(-n2c(C)nnc2Cc2cccc(OC(N)=O)c2Cl)s1,134 to 136
21,O=c1ccc(-c2c(-c3ccccc3)nn3ccccc23)nn1C1CN2CCC1CC2 (stereo not drawn),191 to 193
22,CCCCCC1CCC(c2ccc(-c3ccc(Br)cc3C(F)(F)F)cc2)CC1 (stereo not drawn),51 to 52
23,CC(C)(C)c1cc(/C=C(\C#N)C(N)=S)cc(C(C)(C)C)c1O,210
24,OC(c1cnc2c(cnn2-c2ccccc2)c1)(c1c[nH]c2ncccc12)C(F)(F)F (stereo not drawn),137 to 141
25,COC(=O)c1ccc(OC(=O)CCCCCCCCC(=O)Oc2ccc(C(=O)OC)cc2)cc1,110
26,N#CC1Cc2ccc(Nc3ccncc3N)cc2C1 (stereo not drawn),98 to 100
27,O=S(=O)(NC(=NO)Nc1ccc(Cl)cc1)c1ccc(-c2ccccn2)s1,210

row,Structure (SMILES),melting point [°C]
1,CS(=O)(=O)c1ccc(-n2nc(C(F)(F)F)nc2-c2ccc(Br)cc2)cn1,141 to 143
2,O=C(O)Cc1ccc(S(=O)c2ccc(Cl)cc2)cc1 (stereo not drawn),139 to 141
3,CCOC(Nc1ccccc1)(OCC)c1ccnc(C(=O)c2ccc(Cl)cc2)c1,98 to 99
4,CCCCCc1cnc(-c2ccc(SC)cc2)nc1,52
5,O=C(O)C1c2ccccc2CSc2ccc(Br)cc21 (stereo not drawn),185 to 186
6,CC(C)(C)N1CN(C(C)(C)C)C(N)=C2C=NN=C21,158 to 161
7,N#CC(F)(F)C(F)(F)C(F)(F)C(F)(F)C#N,132
8,CCC1(CC)c2cc(-c3ccc(-c4ccc(O)cc4)cc3)ccc2-c2ccc(-c3ccc(-c4ccc(O)cc4)cc3)cc21,> 300
9,CCOCCOc1ncc2cc(-c3c(Cl)cccc3Cl)c(=N)n(C)c2n1,133 to 135
10,O=C(O)[C@@]1(c2ccc3ccccc3c2)CC1(c1ccccc1)c1ccccc1,195 to 196
11,Cc1oc(-c2ccccc2)nc1CCOc1ccc(CCCC=C2OC(=O)NC2=O)cc1,152 to 153
12,CCOC(=O)c1c[nH]cc1-c1ccccc1[N+](=O)[O-],159 to 161
13,Cc1nc(COc2ccc(Cl)cc2)sc1C(=O)N[C@H](C)[C@](O)(Cn1cncn1)c1ccc(F)cc1F,134 to 135
14,OCc1ccc(-c2ccc(OC3SCC(O)C(O)C3O)cn2)cc1 (stereo not drawn),215
15,CC(=O)Nc1ccccc1C(=O)C=CN(C)C,90 to 95
16,CC(=NNC(=O)c1ccc([N+](=O)[O-])cc1)c1ccncc1,251
17,CCCCc1nn(-c2cc(N)ccc2Cl)c(=O)n1Cc1ccc(-c2ccccc2S(=O)(=O)NC(=O)OC(C)(C)C)cc1,185 to 188
18,Cc1oc(-c2ccco2)nc1COc1ccc(COc2nn(Cc3ccccc3)cc2C(=O)O)cc1,170 to 171
19,O=C(NCCn1cc(Cn2ccnc2)c2ccccc21)Nc1ccccc1,198 to 199
20,O=C(O)COc1ccc2cc(-c3oc4ccccc4c3-c3ccccc3)ccc2c1-c1ccccc1,202 to 203
21,COc1cc2[nH]c(=O)c([N+](=O)[O-])c(C(F)(F)F)c2cc1OC,270
22,CCOC(=O)c1c(-c2ccccc2Cl)c2cc(C(C)C)ccc2n(C)c1=O,140 to 142
23,CC1Nc2ccc(-c3ccc(F)c(Cl)c3)cc2C(C)(C)O1 (stereo not drawn),173 to 175
24,CN(C)CCCOc1ccc(-c2ccc3nnn(Cc4ccc5ncccc5c4)c3n2)cc1F,102 to 105
25,N#Cc1cc(Cl)ccc1Oc1cc(Br)c(F)cc1O,208 to 210
26,COC(=O)C[C@H](O)C[C@H](O)CCc1c(-c2ccc(F)cc2)c(-c2ccc(F)cc2)c(C(=O)Nc2ccc(S(N)(=O)=O)cc2)n1C(C)C,106 to 108

# The remaining lines, values ahead:
row,melting point [°C],Structure (SMILES)
1,119 to 121,NC(=O)C(c1ccccc1)(c1ccccc1)C1CCN(C2CCCCC2)C1 (stereo not drawn)
2,164,CC(C)(C)OC(=O)c1nc(C2CC2)[nH]c(=O)c1OCc1ccccc1
3,77 to 80,CC(=O)OCCS(=O)(=O)C(F)(F)C(O)(Cn1cncn1)c1ccc(F)cc1F (stereo not drawn)
4,82,OC1Cc2ccccc2C1N1CCCCC1 (stereo not drawn)
5,75 to 77,COC(=O)[C@H](CSC(=O)[C@@H](C)c1ccc(CC(C)C)cc1)NC(C)=O
6,191,Cc1nc(-c2ccc([C@H]3CN(c4nc(-c5ccncn5)cc(=O)n4C)CCO3)cc2)no1
7,80 to 82,C[C@H]1C[C@@](O)(c2ccc(S(=O)(=O)c3ccc4c(c3)CCC(=O)N4C)s2)CCO1
8,272 to 273,O=C1NC(=O)C(=Cc2ccc([N+](=O)[O-])cc2)S1
9,107 to 108,COC(=O)c1nn(C)nc1C=O
10,165 to 167,O=C(COc1ccc(Cl)cc1)N1Cc2ccc(C(=O)C(Cl)(Cl)Cl)n2Cc2ccccc21
11,54 to 57,O=C(O)CP(=O)(O)CCNC(=O)c1ccccc1
12,112 to 114,CC(=O)NCc1ccc(CN2CCN(c3ccc(F)cc3)CC2)cc1[N+](=O)[O-]
13,168 to 170,CCn1c(Oc2cccc(N3CCC(O)CC3)c2)nnc1[C@@H](C)NS(=O)(=O)c1ccc(Cl)c(Cl)c1
14,139 to 140,C=CCN(CC=C)CC(=O)N1c2ccccc2N(C)C(=O)c2cnc(-c3ccccc3)nc21
15,36 to 38,CCOC(=O)C1C2CCC(=O)C21 (stereo not drawn)
16,129,CCOC(=O)n1c(Cc2ccccc2)noc1=O
17,92 to 97,CON1CC(c2ccc(OCc3ccccc3)cc2)CC1=O (stereo not drawn)
18,272 to 274,O=C(NCc1nccs1)c1cc(N2CCN(Cc3ccc(F)cc3)C2=O)n[nH]1
19,191 to 193,COC(=O)c1cc2cnc(SC)nc2n(Cc2ccc(OC)c(Cl)c2)c1=O
20,172 to 175,CC(O)(c1ccccc1)C1CCNCC1 (stereo not drawn)
21,133 to 135,CCOC(=O)C(=CNc1ccccc1)C(=O)c1cc(F)c(Cl)c([N+](=O)[O-])c1Cl
22,222 to 224,O=C(NC1(C(=O)O)CC1)C(CS)Cc1ccccc1 (stereo not drawn)
23,145,[N-]=[N+]=N[C@H]1C[C@H](C(=O)Nc2ccc(N3CCOCC3=O)cc2)N(C(=O)Nc2ccc(Cl)cc2)C1

row,melting point [°C],Structure (SMILES)
1,172,CCOc1nsc(NC(=O)N(C)C)c1C(N)=O
2,110 to 111,Cc1cc(Cl)ccc1N=CN(C)SN(C1CCCCC1)C1CCCCC1
3,167 to 169,O=C1CCC(C(=O)N2CCN(CC(=O)N3CCOCC3)CC2)N1 (stereo not drawn)
4,197 to 199,CN1C(O)=C(C(=O)Nc2ccc(Br)cc2)c2ccsc2S1(=O)=O
5,77 to 78,C=CC(=O)CCC1=CC(=O)NC1=O
6,175 to 178,COC(=O)c1ccc(N(N)C(C)=O)c(N)c1
7,250 to 252,c1ccc2c(C3CCCc4cncn43)noc2c1 (stereo not drawn)
8,285,CCOC(=O)N1CCCc2nc3ccccc3c(O)c2C1
9,112 to 114,Cc1nn(-c2ccc(O)cc2F)c(=O)n1C(F)F
10,216 to 218,CNC(=O)[C@H]1CN(c2ccc3c(c2)oc(=O)n3C(C)C)C(=O)O1
11,185 to 187,CCOP(=O)(CC(=O)Nc1cc2c(Nc3ccc(F)c(Cl)c3)ncnc2cc1OCC1CC1)OCC
12,214 to 215,Cc1c(N2C[C@@H](N)[C@@H](C)C2)c(F)c(N)c2c(=O)c(C(=O)O)cn(C3CC3)c12 (relative stereo)
13,137 to 139,CCCCc1ccc(C(=O)NCc2cccc3c2C(=O)N(C2CCC(=O)NC2=O)C3=O)nc1 (stereo not drawn)
14,> 250,Cc1ccc2cc(CC(=O)O)c(=O)[nH]c2n1
15,200 to 202,O=C(O)c1ccc(OCC2CCCCC2)c([N+](=O)[O-])c1
16,127 to 129,CN1CCc2c(c3cc(Cl)ccc3n2CCC#N)C1
17,332 to 334,CCn1cc(C(=O)O)c(=O)c2c1SC(=NO)C2
18,80 to 83,N=C(OCC1CC1)N1Cc2ccccc2-c2ccccc2C1
19,101,Cc1cc(C)n(C(=O)CCNS(=O)(=O)c2ccc(Cl)cc2)n1
20,61,Cc1cccc2c1Cc1ccccc1OC(C(=O)O)O2 (stereo not drawn)
21,175 to 176,CC(C)(C)c1cc(CCc2ccccc2NC(=O)NC2CCN(CCc3ccccc3)CC2)cc(C(C)(C)C)c1O
22,121 to 124,COc1ccc(C)cc1NC(=O)Nc1ccc(N2CCN(C(=O)Nc3cc(OCCO)ccc3Cl)CC2)cc1
